Assay [1] relates to panel of human tumour cell lines. The assay is described as follows: Monolayer proliferation assay, mean IC70 across the cell line panel. Format: cell-based. As to conditions: geometric mean of all replicates across the six cell lines. As for the experimental part: (§1) In vitro evaluation of compounds for anticancer activity in a panel of human tumour cell lines in a monolayer proliferation assay were carried out at the Oncotest Testing Facility, Institute for Experimental Oncology, Oncotest GmbH, Freiburg.
(§2) The Oncotest cell lines were established from human tumor xenografts as described by Roth et al., (1999). The origin of the donor xenografts was described by Fiebig et al., (1999). Other cell lines were either obtained from the NCI (DU145, MCF-7) or purchased from DSMZ, Braunschweig, Germany.
(§3) All cell lines, unless otherwise specified, were grown at 37° C. in a humidified atmosphere (95% air, 5% CO2) in a ‘ready-mix’ medium containing RPMI 1640 medium, 10% fetal calf serum, and 0.1 mg/mL gentamicin (PAA, Cölbe, Germany).
(§4) A modified propidium iodide assay was used to assess the effects of the test compound(s) on the growth of human tumour cell lines (Dengler et al., (1995)).
(§5) Briefly, cells were harvested from exponential phase cultures by trypsinization, counted and plated in 96 well flat-bottomed microtitre plates at a cell density dependent on the cell line (5-10.000 viable cells/well). After 24 h recovery to allow the cells to resume exponential growth, 0.010 mL of culture medium (6 control wells per plate) or culture medium containing the 18,21-didesoxymacbecin analogue was added to the wells. Each concentration was plated in triplicate. Compounds were applied in five concentrations (100; 10; 1; 0.1 and 0.01 μg/ml). Following 4 days of continuous exposure, cell culture medium with or without test compound was replaced by 0.2 mL of an aqueous propidium iodide (PI) solution (7 mg/L). To measure the proportion of living cells, cells may be permeabilized by freezing the plates. After thawing the plates, fluorescence was measured using the Cytofluor 4000 microplate reader (excitation 530 nm, emission 620 nm), giving a direct relationship to the total number of viable cells. Growth inhibition may be expressed as treated/control×100 (% T/C). This can be plotted as a graph of % T/C against concentration of test compound applied, which can then be used to calculate the concentration necessary to inhibit cell growth by 70% (IC70).
(§6) In vitro evaluation of the test compounds for anticancer activity in a panel of human tumour cell lines in a monolayer proliferation assay was carried out as described in the general methods using a modified propidium iodide assay.

Assay [2] deals with Yeast Hsp90 (Saccharomyces cerevisiae, UniProt P02829). The assay is described as follows: Isothermal titration calorimetry, Kd for Hsp90 binding. The following applies: ITC at 30° C., 0.008 mM yeast Hsp90, 2% DMSO.
Procedure: Yeast Hsp90 was dialysed against 20 mM Tris pH 7.5 containing 1 mM EDTA and 5 mM NaCl and then diluted to 0.008 mM in the same buffer, but containing 2% DMSO. The test compounds were dissolved in 100% DMSO at a concentration of 50 mM and subsequently diluted to 0.1 mM in the same buffer as for Hsp90 with 2% DMSO. Heats of interaction were measured at 30° C. on a MSC system (Microcal), with a cell volume of 1.458 mL. 10 aliquots of 0.027 mL of 0.100 mM of each test compound were injected into 0.008 mM yeast Hsp90. Heats of dilution were determined in a separate experiment by injecting the test compound into buffer containing 2% DMSO, and the corrected data fitted using a nonlinear least square curve-fitting algorithm (Microcal Origin) with three floating variables: stoichiometry, binding constant and change in enthalpy of interaction.
Assay [3] has as its system MEXF 394NL. Briefly: Monolayer proliferation assay (modified propidium iodide assay). Format: cell-based, human. As to conditions: 4 days continuous exposure. The protocol:
as §1, §2, §3, §4, §5, §6

The subject of assay [4] is CXF HT29. The assay is described as above. Format: cell-based, human. As to conditions: 4 days continuous exposure. As for the experimental part:
as §1, §2, §3, §4, §5, §6

Assay [5] has as its system MCF-7. The description is as above. Format: cell-based, human. The following applies: 4 days continuous exposure. The protocol: as §1, §2, §3, §4, §5, §6
The subject of assay [6] is CNXF 498NL. Described as above. Format: cell-based, human. The following applies: 4 days continuous exposure. As for the experimental part:
as §1, §2, §3, §4, §5, §6

Assay [7] deals with DU145. The assay is described as above. Format: cell-based, human. The following applies: 4 days continuous exposure. The protocol: as §1, §2, §3, §4, §5, §6
Assay [8] concerns LXF 1121L. The description is as above. Format: cell-based, human. The following applies: 4 days continuous exposure. As for the experimental part:
as §1, §2, §3, §4, §5, §6

Assay [9] deals with Hsp90 (Homo sapiens, UniProt P07900). The following applies: cited from earlier work.

Chain of Yeast Hsp90 (P02829 whole entry): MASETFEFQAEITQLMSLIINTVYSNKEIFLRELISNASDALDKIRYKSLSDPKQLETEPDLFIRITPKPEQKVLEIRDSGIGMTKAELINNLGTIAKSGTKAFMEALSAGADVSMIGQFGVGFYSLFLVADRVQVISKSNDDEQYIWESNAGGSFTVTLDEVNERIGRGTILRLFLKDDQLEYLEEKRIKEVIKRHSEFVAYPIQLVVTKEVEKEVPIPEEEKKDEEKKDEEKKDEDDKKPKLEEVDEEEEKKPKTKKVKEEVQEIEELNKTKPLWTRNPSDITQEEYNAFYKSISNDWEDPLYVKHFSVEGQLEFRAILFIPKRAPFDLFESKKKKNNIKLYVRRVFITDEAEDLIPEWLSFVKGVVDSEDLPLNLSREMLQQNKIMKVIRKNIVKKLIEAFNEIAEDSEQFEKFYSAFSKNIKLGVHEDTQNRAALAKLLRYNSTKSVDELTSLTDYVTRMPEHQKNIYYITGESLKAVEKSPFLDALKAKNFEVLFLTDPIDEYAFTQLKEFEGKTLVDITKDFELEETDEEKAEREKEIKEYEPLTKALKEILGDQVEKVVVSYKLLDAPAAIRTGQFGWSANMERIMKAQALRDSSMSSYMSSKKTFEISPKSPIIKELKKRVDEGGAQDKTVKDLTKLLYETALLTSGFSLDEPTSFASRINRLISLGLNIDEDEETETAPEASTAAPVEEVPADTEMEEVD

Turning to `CO[C@H]1C[C@H](C)Cc2cccc(c2)NC(=O)/C(C)=C/CC[C@H](C)[C@@H](OC(N)=O)/C(C)=C/[C@H](C)[C@H]1O` [Compound 16, 4,5-dihydro-11-O-desmethyl-15-desmethoxy-18,21-didesoxymacbecin], the “average IC70 value across the cell-line panel” value in assay [1] was 0.193 µg/mL. Also, binding in [2] was characterised by a dissociation constant (Kd) of 20 nM. The “Test/Control (%) at drug concentration” value in assay [3] (0.01 μg/mL) came out at 100%; in assay [3] (0.1 μg/mL) it was 64%; in [3] (1 μg/mL), 7%; in [3] (10 μg/mL), 5%; in assay [3] (100 μg/mL) it was 3%; in assay [4] (CXF HT29, 0.01 μg/mL), 106%. Moreover, the “Test/Control (%) at drug concentration” value in assay [4] (CXF HT29, 0.1 μg/mL) worked out at 52%; in assay [4] (CXF HT29, 1 μg/mL), 8%; in [4] (CXF HT29, 10 μg/mL), 7%; in assay [4] (CXF HT29, 100 μg/mL), 6%; in assay [5] (MCF-7, 0.01 μg/mL) it was 83%; in [5] (MCF-7, 0.1 μg/mL), 21%. Besides, the “Test/Control (%) at drug concentration” value is 10% in assay [5] (MCF-7, 1 μg/mL); 11% in assay [5] (MCF-7, 10 μg/mL); 10% in [5] (MCF-7, 100 μg/mL); 100% in assay [6] (0.01 μg/mL); 19% in [6] (0.1 μg/mL); 8% in assay [6] (1 μg/mL). In addition, the “Test/Control (%) at drug concentration” value in assay [6] (10 μg/mL) amounted to 8%; in assay [6] (100 μg/mL), 6%; in assay [7] (DU145, 0.01 μg/mL), 96%; in [7] (DU145, 0.1 μg/mL) it was 47%; in assay [7] (DU145, 1 μg/mL) it was 8%; in assay [7] (DU145, 10 μg/mL), 8%. Besides, the “Test/Control (%) at drug concentration” value in assay [7] (DU145, 100 μg/mL) was determined as 8%; in [8] (0.01 μg/mL) it was 106%; in [8] (0.1 μg/mL) it was 48%; in assay [8] (1 μg/mL), 10%; in assay [8] (10 μg/mL) it was 7%; in [8] (100 μg/mL), 5%.
In the case of `CO[C@H]1C[C@H](C)Cc2cc(ccc2F)NC(=O)/C(C)=C/CC[C@H](C)[C@@H](OC(N)=O)/C(C)=C/[C@H](C)[C@H]1O` [Compound 17, 4,5-dihydro-11-O-desmethyl-15-desmethoxy-17-fluoro-18,21-didesoxymacbecin], in assay [1], the “average IC70 value across the cell-line panel” value worked out at 0.106 µg/mL. In [2], this compound showed a Kd of 19 nM. In addition, the “Test/Control (%) at drug concentration” value came to 101% in assay [3] (0.01 μg/mL); 21% in assay [3] (0.1 μg/mL); 4% in [3] (1 μg/mL); 3% in assay [3] (10 μg/mL); 3% in [3] (100 μg/mL); 102% in assay [4] (CXF HT29, 0.01 μg/mL). Also, the “Test/Control (%) at drug concentration” value was 49% in assay [4] (CXF HT29, 0.1 μg/mL); 7% in assay [4] (CXF HT29, 1 μg/mL); 7% in [4] (CXF HT29, 10 μg/mL); 8% in [4] (CXF HT29, 100 μg/mL); 86% in [5] (MCF-7, 0.01 μg/mL); 20% in [5] (MCF-7, 0.1 μg/mL). Moreover, the “Test/Control (%) at drug concentration” value amounted to 10% in assay [5] (MCF-7, 1 μg/mL); 10% in assay [5] (MCF-7, 10 μg/mL); 8% in assay [5] (MCF-7, 100 μg/mL); 97% in assay [6] (0.01 μg/mL); 22% in assay [6] (0.1 μg/mL); 7% in assay [6] (1 μg/mL). The “Test/Control (%) at drug concentration” value in assay [6] (10 μg/mL) is recorded as 8%; in assay [6] (100 μg/mL) it was 7%; in assay [7] (DU145, 0.01 μg/mL), 93%; in [7] (DU145, 0.1 μg/mL) it was 7%; in assay [7] (DU145, 1 μg/mL) it was 8%; in assay [7] (DU145, 10 μg/mL), 10%. Besides, the “Test/Control (%) at drug concentration” value in assay [7] (DU145, 100 μg/mL) is 9%; in assay [8] (0.01 μg/mL), 100%; in assay [8] (0.1 μg/mL) it was 41%; in assay [8] (1 μg/mL), 10%; in [8] (10 μg/mL), 11%; in assay [8] (100 μg/mL), 11%.
Consider `CO[C@H]1C[C@H](C)Cc2cc(F)cc(c2)NC(=O)/C(C)=C/CC[C@H](C)[C@@H](OC(N)=O)/C(C)=C/[C@H](C)[C@H]1O` [Compound 18, 4,5-dihydro-11-O-desmethyl-15-desmethoxy-18-fluoro-18,21-didesoxymacbecin], for which the “average IC70 value across the cell-line panel” value in assay [1] amounted to 0.077 µg/mL. In [2], the Kd stood at 23.5 nM. Besides, the “Test/Control (%) at drug concentration” value in assay [3] (0.01 μg/mL) is listed as 91%; in [3] (0.1 μg/mL) it was 24%; in [3] (1 μg/mL), 7%; in assay [3] (10 μg/mL) it was 5%; in [3] (100 μg/mL) it was 4%; in assay [4] (CXF HT29, 0.01 μg/mL) it was 98%. Also, the “Test/Control (%) at drug concentration” value in assay [4] (CXF HT29, 0.1 μg/mL) is recorded as 14%; in [4] (CXF HT29, 1 μg/mL) it was 11%; in assay [4] (CXF HT29, 10 μg/mL) it was 13%; in assay [4] (CXF HT29, 100 μg/mL) it was 11%; in [5] (MCF-7, 0.01 μg/mL) it was 77%; in assay [5] (MCF-7, 0.1 μg/mL), 27%. The “Test/Control (%) at drug concentration” value is 12% in [5] (MCF-7, 1 μg/mL); 12% in assay [5] (MCF-7, 10 μg/mL); 8% in assay [5] (MCF-7, 100 μg/mL); 64% in assay [6] (0.01 μg/mL); 9% in [6] (0.1 μg/mL); 9% in assay [6] (1 μg/mL). The “Test/Control (%) at drug concentration” value worked out at 11% in assay [6] (10 μg/mL); 9% in [6] (100 μg/mL); 66% in assay [7] (DU145, 0.01 μg/mL); 9% in [7] (DU145, 0.1 μg/mL); 8% in assay [7] (DU145, 1 μg/mL); 9% in [7] (DU145, 10 μg/mL). Further, the “Test/Control (%) at drug concentration” value in assay [7] (DU145, 100 μg/mL) turned out to be 6%; in assay [8] (0.01 μg/mL) it was 94%; in assay [8] (0.1 μg/mL), 43%; in [8] (1 μg/mL), 13%; in assay [8] (10 μg/mL) it was 13%; in assay [8] (100 μg/mL), 12%.
Take `CO[C@H]1C[C@H](C)Cc2cc(O)cc(c2)NC(=O)/C=C/CC[C@H](OC)[C@@H](OC(N)=O)/C(C)=C/[C@H](C)[C@H]1O` [KOSN1559]: in [9] (greater binding affinity than 17-AAG), the “binding affinity to Hsp90 relative to 17-AAG” value is 8 fold. Besides, the “binding affinity to Hsp90 relative to geldanamycin” value in [9] (greater binding affinity than geldanamycin) is listed as 4 fold.
`CO[C@H]1[C@@H](OC)C[C@H](C)[C@@H](OC)C2=CC(=O)C=C(NC(=O)/C(C)=C/C=C\[C@H](C)[C@@H](OC(N)=O)/C(C)=C/[C@@H]1C)C2=O` [macbecin]: the “average IC70 value across the cell-line panel” value in [1] is 0.21 µg/mL.

The record behind these values is patent US20090253667A1, “18 ,21-Didesoxymacbecin Derivatives for the Treatment of Cancer” (priority 2006, published 2009).
